Source: PubChem BioAssay AID248 (DTP/NCI, 2004)
Where “and” joins values, the source holds several entries; their conditions need not be identical. Equal entries are not always repeated. Toxic doses and inconclusive results are not listed. Cut-off read from the data, not from the text of the source: active = T/C of 150% or more; inactive = T/C below 125%.

Tested on: L1210 leukemia ip in BDF1 mice, survival T/C
Assay: NCI In Vivo Anticancer Drug Screen. Data for tumor model L1210 Leukemia (intraperitoneal) in B6D2F1 (BDF1) mice
Conditions: higher = longer survival
How it was run: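 Value reflects the ratio of survival in compound-treated mice to survival in vehicle-treated controls, with both groups carrying the same transplanted tumor.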

[1] = endpoint: mean survival time, dose: 100.0 mg/kg/injection, schedule: Q04DX002 (ip), vehicle: saline with Tween-80
[2] = endpoint: mean survival time, dose: 200.0 mg/kg/injection, schedule: Q04DX002 (ip), vehicle: saline with Tween-80
[3] = endpoint: mean survival time, dose: 400.0 mg/kg/injection, schedule: Q04DX002 (ip), vehicle: saline with Tween-80
[4] = endpoint: mean survival time, dose: 100.0 mg/kg/injection, schedule: Q04DX003 (ip), vehicle: Klucel (hydroxypropylcellulose) (HPC)
[5] = endpoint: mean survival time, dose: 200.0 mg/kg/injection, schedule: Q04DX003 (ip), vehicle: Klucel (hydroxypropylcellulose) (HPC)
[6] = endpoint: mean survival time, dose: 400.0 mg/kg/injection, schedule: Q04DX003 (ip), vehicle: Klucel (hydroxypropylcellulose) (HPC)
[7] = endpoint: mean survival time, dose: 12.5 mg/kg/injection, schedule: Q01DX009 (ip), vehicle: saline
[8] = endpoint: mean survival time, dose: 25.0 mg/kg/injection, schedule: Q01DX009 (ip), vehicle: saline
[9] = endpoint: mean survival time, dose: 25.0 mg/kg/injection, schedule: Q04DX003 (ip), vehicle: Klucel (hydroxypropylcellulose) (HPC)
[10] = endpoint: mean survival time, dose: 50.0 mg/kg/injection, schedule: Q01DX009 (ip), vehicle: saline
[11] = endpoint: mean survival time, dose: 50.0 mg/kg/injection, schedule: Q04DX003 (ip), vehicle: Klucel (hydroxypropylcellulose) (HPC)
[12] = endpoint: mean survival time, dose: 100.0 mg/kg/injection, schedule: Q01DX001 (ip), vehicle: saline
[13] = endpoint: mean survival time, dose: 200.0 mg/kg/injection, schedule: Q01DX001 (ip), vehicle: saline

Measured: T/C

CCOC(=O)c1ccc(N(CC(O)CN=[N+]=[N-])S(=O)(=O)c2ccc(C)cc2)cc1 (stereo not drawn)
inactive: endpoint: mean survival time, dose: 100.0 mg/kg/injection, schedule: Q01DX001 (ip), vehicle: saline with Tween-80 101 % of control | endpoint: mean survival time, dose: 100.0 mg/kg/injection, schedule: Q01DX009 (ip), vehicle: saline with Tween-80 102 % of control and 107 % of control | [1] 98 % of control | endpoint: mean survival time, dose: 100.0 mg/kg/injection, schedule: Q04DX003 (ip), vehicle: saline with Tween-80 88 % of control | endpoint: mean survival time, dose: 200.0 mg/kg/injection, schedule: Q01DX001 (ip), vehicle: saline with Tween-80 101 % of control | endpoint: mean survival time, dose: 200.0 mg/kg/injection, schedule: Q01DX009 (ip), vehicle: saline with Tween-80 95 % of control and 100 % of control | [2] 93 % of control and 89 % of control | endpoint: mean survival time, dose: 400.0 mg/kg/injection, schedule: Q01DX001 (ip), vehicle: saline with Tween-80 104 % of control | endpoint: mean survival time, dose: 400.0 mg/kg/injection, schedule: Q01DX009 (ip), vehicle: saline with Tween-80 104 % of control and 91 % of control | [3] 96 % of control and 89 % of control | endpoint: mean survival time, dose: 400.0 mg/kg/injection, schedule: Q04DX003 (ip), vehicle: saline with Tween-80 88 % of control

O=C(COc1ccc(Cl)cc1C(=O)O)NCc1ccc(NC(=O)Nc2ccc(S(=O)(=O)F)cc2Cl)cc1
inactive: endpoint: mean survival time, dose: 100.0 mg/kg/injection, schedule: Q01DX001 (ip), vehicle: Klucel (hydroxypropylcellulose) (HPC) 102 % of control | endpoint: mean survival time, dose: 200.0 mg/kg/injection, schedule: Q01DX001 (ip), vehicle: Klucel (hydroxypropylcellulose) (HPC) 93 % of control | endpoint: mean survival time, dose: 400.0 mg/kg/injection, schedule: Q01DX001 (ip), vehicle: Klucel (hydroxypropylcellulose) (HPC) 89 % of control

CCOc1ccc(N(O)C(C)=O)cc1
inactive: endpoint: mean survival time, dose: 100.0 mg/kg/injection, schedule: Q04DX003 (ip), vehicle: saline 91 % of control | endpoint: mean survival time, dose: 200.0 mg/kg/injection, schedule: Q04DX003 (ip), vehicle: saline 100 % of control | endpoint: mean survival time, dose: 400.0 mg/kg/injection, schedule: Q04DX003 (ip), vehicle: saline 96 % of control

Cc1nc(C(N)=O)c2nc3c4ccccc4c4ccccc4c3nn12
inactive: endpoint: mean survival time, dose: 25.0 mg/kg/injection, schedule: Q04DX002 (ip), vehicle: saline with Tween-80 94 % of control | endpoint: mean survival time, dose: 50.0 mg/kg/injection, schedule: Q04DX002 (ip), vehicle: saline with Tween-80 91 % of control | [1] 87 % of control | [2] 89 % of control | [3] 92 % of control

COc1ccc(C(C)(O)c2cnc(C)n2Cc2ccccc2)cc1 (stereo not drawn)
inactive: [4] 99 % of control | [5] 97 % of control | [6] 95 % of control

O=P1(CCc2ccc(Br)cc2)CC(Br)C(Br)C1 (stereo not drawn)
inactive: [4] 104 % of control | [5] 106 % of control | [6] 96 % of control

COc1cccc(NC(=S)N2CCCCC2)c1
inactive: endpoint: mean survival time, dose: 100.0 mg/kg/injection, schedule: Q01DX009 (ip), vehicle: Klucel (hydroxypropylcellulose) (HPC) 108 % of control | endpoint: mean survival time, dose: 200.0 mg/kg/injection, schedule: Q01DX009 (ip), vehicle: Klucel (hydroxypropylcellulose) (HPC) 116 % of control | endpoint: mean survival time, dose: 400.0 mg/kg/injection, schedule: Q01DX009 (ip), vehicle: Klucel (hydroxypropylcellulose) (HPC) 102 % of control

NC(N)=Nc1nc2ccccc2s1
inactive: [7] 94 % of control | [8] 100 % of control | [9] 103 % of control | [10] 96 % of control | [11] 100 % of control

CNCCCN1c2ccccc2CCc2ccccc21
inactive: endpoint: mean survival time, dose: 3.12 mg/kg/injection, schedule: Q01DX009 (ip), vehicle: saline 123 % of control | endpoint: mean survival time, dose: 5.0 mg/kg/injection, schedule: Q01DX001 (ip), vehicle: saline 105 % of control | endpoint: mean survival time, dose: 6.25 mg/kg/injection, schedule: Q01DX009 (ip), vehicle: saline 115 % of control | endpoint: mean survival time, dose: 10.0 mg/kg/injection, schedule: Q01DX001 (ip), vehicle: saline 100 % of control | [7] 115 % of control | endpoint: mean survival time, dose: 20.0 mg/kg/injection, schedule: Q01DX001 (ip), vehicle: saline 111 % of control | [8] 110 % of control | endpoint: mean survival time, dose: 25.0 mg/kg/injection, schedule: Q04DX003 (ip), vehicle: saline 101 % of control | endpoint: mean survival time, dose: 40.0 mg/kg/injection, schedule: Q01DX001 (ip), vehicle: saline 95 % of control | [10] 106 % of control | endpoint: mean survival time, dose: 50.0 mg/kg/injection, schedule: Q04DX003 (ip), vehicle: saline 97 % of control | endpoint: mean survival time, dose: 80.0 mg/kg/injection, schedule: Q01DX001 (ip), vehicle: saline 92 % of control

CC(=O)Nc1ccc2c(c1)Cc1cc(N=Cc3ccccn3)ccc1-2
inactive: [11] 87 % of control | [4] 90 % of control

Cc1cc(C(C)(C)C)cc(O)c1O
inactive: endpoint: mean survival time, dose: 100.0 mg/kg/injection, schedule: Q01DX001 (ip), vehicle: other 113 % of control | endpoint: mean survival time, dose: 200.0 mg/kg/injection, schedule: Q01DX001 (ip), vehicle: other 93 % of control | endpoint: mean survival time, dose: 400.0 mg/kg/injection, schedule: Q01DX001 (ip), vehicle: other 93 % of control

CC(Br)C(=O)c1cccc2ccccc12 (stereo not drawn)
inactive: [9] 90 % of control | [11] 90 % of control | [4] 97 % of control and 98 % of control

N=C(N)/[N+]([O-])=N/O
inactive: endpoint: mean survival time, dose: 8.0 mg/kg/injection, schedule: Q01DX001 (ip), vehicle: saline + alcohol 97 % of control | endpoint: mean survival time, dose: 12.0 mg/kg/injection, schedule: Q01DX001 (ip), vehicle: saline + alcohol 100 % of control | endpoint: mean survival time, dose: 18.0 mg/kg/injection, schedule: Q01DX001 (ip), vehicle: saline + alcohol 111 % of control | endpoint: mean survival time, dose: 26.0 mg/kg/injection, schedule: Q01DX001 (ip), vehicle: saline + alcohol 98 % of control | endpoint: mean survival time, dose: 40.0 mg/kg/injection, schedule: Q01DX001 (ip), vehicle: saline + alcohol 103 % of control | endpoint: mean survival time, dose: 60.0 mg/kg/injection, schedule: Q01DX001 (ip), vehicle: saline + alcohol 95 % of control | endpoint: mean survival time, dose: 90.0 mg/kg/injection, schedule: Q01DX001 (ip), vehicle: saline + alcohol 101 % of control | endpoint: mean survival time, dose: 135.0 mg/kg/injection, schedule: Q01DX001 (ip), vehicle: saline + alcohol 100 % of control | endpoint: mean survival time, dose: 200.0 mg/kg/injection, schedule: Q01DX001 (ip), vehicle: saline + alcohol 108 % of control

CCNC(=O)CCl
inactive: [12] 96 % of control | [13] 104 % of control

COc1cc([C@@H]2c3cc4c(c(O)c3C[C@H]3COC(=O)[C@@H]32)OCO4)cc(OC)c1OC
inactive: endpoint: mean survival time, dose: 0.06 mg/kg/injection, schedule: Q01DX Z (ip), vehicle: saline 100 % of control | endpoint: mean survival time, dose: 0.12 mg/kg/injection, schedule: Q01DX Z (ip), vehicle: saline 103 % of control | endpoint: mean survival time, dose: 0.25 mg/kg/injection, schedule: Q01DX Z (ip), vehicle: saline 113 % of control | endpoint: mean survival time, dose: 0.5 mg/kg/injection, schedule: Q01DX Z (ip), vehicle: saline 116 % of control | endpoint: mean survival time, dose: 1.0 mg/kg/injection, schedule: Q01DX Z (ip), vehicle: saline 99 % of control | endpoint: mean survival time, dose: 1.5 mg/kg/injection, schedule: Q01DX Z (ip), vehicle: saline 115 % of control | endpoint: mean survival time, dose: 2.25 mg/kg/injection, schedule: Q01DX Z (ip), vehicle: saline 108 % of control | endpoint: mean survival time, dose: 28.0 mg/kg/injection, schedule: Q01DX001 (ip), vehicle: saline 102 % of control | endpoint: mean survival time, dose: 45.0 mg/kg/injection, schedule: Q01DX001 (ip), vehicle: saline 122 % of control | endpoint: mean survival time, dose: 50.0 mg/kg/injection, schedule: Q01DX001 (ip), vehicle: saline 101 % of control | endpoint: mean survival time, dose: 65.0 mg/kg/injection, schedule: Q01DX001 (ip), vehicle: saline 111 % of control | [12] 112 % of control | [13] 112 % of control | endpoint: mean survival time, dose: 400.0 mg/kg/injection, schedule: Q01DX001 (ip), vehicle: saline 117 % of control | endpoint: median survival time, dose: 0.25 mg/kg/injection, schedule: Q01DX009 (ip), vehicle: Klucel (hydroxypropylcellulose) (HPC) 100 % of control | endpoint: median survival time, dose: 0.5 mg/kg/injection, schedule: Q01DX009 (ip), vehicle: Klucel (hydroxypropylcellulose) (HPC) 100 % of control | endpoint: median survival time, dose: 1.0 mg/kg/injection, schedule: Q01DX009 (ip), vehicle: Klucel (hydroxypropylcellulose) (HPC) 100 % of control | endpoint: median survival time, dose: 2.0 mg/kg/injection, schedule: Q01DX009 (ip), vehicle: Klucel (hydroxypropylcellulose) (HPC) 100 % of control

CCCCC(=O)N/N=C\c1cccc([N+](=O)[O-])c1
inactive: endpoint: mean survival time, dose: 100.0 mg/kg/injection, schedule: Q01DX001 (ip), vehicle: carboxymethylcellulose (CMC) 92 % of control | endpoint: mean survival time, dose: 200.0 mg/kg/injection, schedule: Q01DX001 (ip), vehicle: carboxymethylcellulose (CMC) 92 % of control | endpoint: mean survival time, dose: 400.0 mg/kg/injection, schedule: Q01DX001 (ip), vehicle: carboxymethylcellulose (CMC) 95 % of control
